Reference: patent US20090208493A1, “Compounds and methods for the selective inhibition of ABCB1, ABCC1 and ABCG2 transporters and the treatment of cancers, especially drug resistant cancers and high throughput flow cytometry assay to detect selective inhibitors” (STC. UNM, priority 2007, published 2009)
Where a name gives a salt, the structure may show the parent alone. Read-outs that look alike come from different tables or passages of the source.

Tests used:
ABCB1 [1] = target: T1, ABCB1 (Homo sapiens, UniProt P08183); assay: JC-1 efflux HyperCyt flow cytometry assay (ABCB1 reversal); details: for hit in primary screen of Prestwick Chemical Library for ABCB1-mediated JC-1 efflux: final concentration of 5 μM
[2] = test system: DNR-resistant Jurkat cells; assay: Chemreversal50: sensitisation of DNR-resistant Jurkat cells to 100 nM DNR; format: cell-based, human; details: read-out: Chemorev50 (SD), 50% of reversal of chemotherapeutic effect determined in in vitro screen
Experimental: To enable this analysis, a 3-log range of each “hit” compound was added in 2 mL aliquots to a 6 well plate and, over a range of 7 days, total cell number and viability was measured using a hemacytometer and trypan blue staining. Fresh media containing 100 nM DNR was added over the course of the experiment to maintain the cell concentration ≧100,000 cells/mL. […] The differences (if any) between the Chemreversal50 and TD50 gave an approximation of an in vitro “therapeutic index” for each compound.

[3] = test system: Jurkat DNR resistant cells; assay: Chemosensitivity of DNR-resistant Jurkat cells; format: cell-based, human; details: for IC50: Homo sapiens, Jurkat cells with acquired resistance to DNR
parental Jurkat cells = assay: Chemosensitivity of parental (therapy sensitive) Jurkat cells; format: cell-based; details: Homo sapiens
[4] = test system: DNR-resistant Jurkat cells; format: cell-based; details: media alone, 7 days
ABCB1 [5] = target: T1, ABCB1; details: 5 μM
ABCB1 [6] = target: T1, ABCB1; assay: JC1 duplex high-throughput flow cytometry assay, ABCB1 (Jurkat-DNR cells); format: cell-based; design: endogenous in cells; host or cells: Jurkat cells selected for daunorubicin resistance (Jurkat-DNR); details: 384 well plate
Experimental: (§1) Jurkat-DNR cells (ABCB1) were labeled with 0.5 ng/ml FarRed DDAO CellTrace SE (Invitrogen) for 15 min at room temperature, washed twice by centrifugation, then combined with unlabeled IgMXP3 cells (ABCG2) in the assay buffer. The label binds covalently to amine groups in cells and is detected at red fluorescence emission wavelengths of 665±10 nm upon excitation at 635 nm. Final in-well concentration of cells was 3×10^6 cell/ml at a 1:1 ratio of the two cell types.

ABCG2 = target: T2, ABCG2 (Homo sapiens, UniProt Q9UNQ0); assay: JC1 duplex high-throughput flow cytometry assay, ABCG2 (IgMXP3 cells); format: cell-based; details: 384 well plate
T2 construct: ABCG2-expressing IgMXP3 cells; endogenous in cells; host or cells: IgMXP3 cells (resistant subline of Igrov1)
T2 sequence (Q9UNQ0 1-655): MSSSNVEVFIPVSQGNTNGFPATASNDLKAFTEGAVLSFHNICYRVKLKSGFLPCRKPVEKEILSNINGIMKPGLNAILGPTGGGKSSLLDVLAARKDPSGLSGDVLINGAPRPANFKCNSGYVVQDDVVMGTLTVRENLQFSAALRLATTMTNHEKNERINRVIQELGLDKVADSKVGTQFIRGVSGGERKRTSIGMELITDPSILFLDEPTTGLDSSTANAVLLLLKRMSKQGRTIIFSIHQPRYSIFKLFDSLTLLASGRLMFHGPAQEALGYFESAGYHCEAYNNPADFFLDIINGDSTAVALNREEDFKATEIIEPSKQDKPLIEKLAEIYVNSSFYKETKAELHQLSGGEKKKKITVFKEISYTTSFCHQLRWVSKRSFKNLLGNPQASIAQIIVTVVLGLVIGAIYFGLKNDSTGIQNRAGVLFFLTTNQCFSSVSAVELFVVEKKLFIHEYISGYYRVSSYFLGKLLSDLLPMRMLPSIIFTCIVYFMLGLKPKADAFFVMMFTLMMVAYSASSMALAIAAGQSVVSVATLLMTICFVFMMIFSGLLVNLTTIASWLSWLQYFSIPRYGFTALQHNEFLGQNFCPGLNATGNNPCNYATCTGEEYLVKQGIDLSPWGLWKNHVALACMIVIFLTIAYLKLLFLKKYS
Experimental: as §1

[7] = Homo sapiens, 168 h, DNR-resistant Jurkat cells, fixed 100 nM DNR, 7 days, trypan blue viability

T1 sequence (P08183 whole entry): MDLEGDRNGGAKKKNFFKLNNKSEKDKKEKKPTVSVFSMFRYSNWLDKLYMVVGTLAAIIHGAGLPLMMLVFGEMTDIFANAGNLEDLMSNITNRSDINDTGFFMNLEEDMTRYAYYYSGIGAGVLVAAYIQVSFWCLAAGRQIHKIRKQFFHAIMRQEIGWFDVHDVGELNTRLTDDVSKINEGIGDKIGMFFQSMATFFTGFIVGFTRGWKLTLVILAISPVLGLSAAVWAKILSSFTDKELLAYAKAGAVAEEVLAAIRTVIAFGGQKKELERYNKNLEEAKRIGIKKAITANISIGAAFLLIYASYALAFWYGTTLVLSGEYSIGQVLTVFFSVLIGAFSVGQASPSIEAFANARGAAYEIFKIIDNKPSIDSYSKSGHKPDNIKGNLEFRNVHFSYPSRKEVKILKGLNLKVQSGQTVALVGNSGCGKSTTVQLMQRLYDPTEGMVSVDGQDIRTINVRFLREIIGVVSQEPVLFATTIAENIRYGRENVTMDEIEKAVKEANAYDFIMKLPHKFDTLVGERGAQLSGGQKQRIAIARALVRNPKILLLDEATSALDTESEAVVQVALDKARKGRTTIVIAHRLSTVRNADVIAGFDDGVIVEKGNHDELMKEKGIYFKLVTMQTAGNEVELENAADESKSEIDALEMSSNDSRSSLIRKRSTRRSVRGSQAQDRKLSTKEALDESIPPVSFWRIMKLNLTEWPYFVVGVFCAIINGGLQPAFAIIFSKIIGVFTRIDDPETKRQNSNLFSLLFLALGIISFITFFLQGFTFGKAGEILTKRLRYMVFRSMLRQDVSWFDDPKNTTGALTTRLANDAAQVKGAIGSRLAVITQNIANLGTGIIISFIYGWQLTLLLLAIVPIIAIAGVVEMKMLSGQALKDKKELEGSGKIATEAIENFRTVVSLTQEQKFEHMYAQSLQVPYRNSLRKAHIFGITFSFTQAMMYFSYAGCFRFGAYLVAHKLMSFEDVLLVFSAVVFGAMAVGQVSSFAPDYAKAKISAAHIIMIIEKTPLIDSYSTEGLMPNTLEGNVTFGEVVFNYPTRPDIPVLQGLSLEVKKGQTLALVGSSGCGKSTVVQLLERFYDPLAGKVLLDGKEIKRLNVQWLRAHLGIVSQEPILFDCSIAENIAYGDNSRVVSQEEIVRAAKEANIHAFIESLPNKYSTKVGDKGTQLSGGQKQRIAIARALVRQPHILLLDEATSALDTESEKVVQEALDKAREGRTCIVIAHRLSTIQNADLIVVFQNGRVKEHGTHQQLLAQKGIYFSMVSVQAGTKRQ

Cc1cc(C2CCCCC2)n(O)c(=O)c1.NCCO [ciclopirox ethanolamine]
hit in primary screen of Prestwick Chemical Library for ABCB1-mediated JC-1 efflux (ABCB1 [1]): inhibiting ABCB1-mediated drug efflux

Cc1cccc(C)c1NC(=O)CN1CCN(CCCC(c2ccc(F)cc2)c2ccc(F)cc2)CC1 [Lidoflazine, lidoflazine]
IC50 (ABCB1 [1]): 5.4 ± 0.55 µM
EC50 [2, 7]: 3.1 µM

CC[C@H](C)[C@H]1O[C@]2(C=C[C@@H]1C)C[C@@H]1C[C@@H](C/C=C(\C)[C@@H](O[C@H]3C[C@H](OC)[C@@H](O[C@H]4C[C@H](OC)[C@@H](O)[C@H](C)O4)[C@H](C)O3)[C@@H](C)/C=C/C=C3\CO[C@@H]4[C@H](O)C(C)=C[C@@H](C(=O)O1)[C@]34O)O2 [avermectin]
hit in primary screen of Prestwick Chemical Library for ABCB1-mediated JC-1 efflux (ABCB1 [1]): inhibiting ABCB1-mediated drug efflux

C[C@]12C=CC(=O)C=C1CC[C@@H]1[C@@H]2[C@@H](O)C[C@@]2(C)[C@H]1CC[C@]2(O)C(=O)CO [PRED, prednisolone]
increased resistance of DNR-resistant vs parental Jurkat cells [3]: 3 fold
IC50 [3]: 1 µM
IC50 (parental Jurkat cells): 0.316 µM

CC(=O)N1CCN(c2ccc(OCC3COC(Cn4ccnc4)(c4ccc(Cl)cc4Cl)O3)cc2)CC1 (stereo not shown) [Ketoconazole, ketoconazole]
EC50 [2, 7]: 3.7 µM

CCCNCC(O)COc1ccccc1C(=O)CCc1ccccc1 (stereo not shown) [Propafenone HCL, propafenone]
EC50 [2, 7]: 4.9 ± 1.3 µM

C[C@@H]1C[C@H]2[C@@H]3CCC4=CC(=O)C=C[C@]4(C)[C@@]3(Cl)[C@@H](O)C[C@]2(C)[C@@]1(OC(=O)c1ccco1)C(=O)CCl [Mometasone Furoate, mometasone furoate]
IC50 (ABCB1 [1]; read-out: IC50 (SD), 50% inhibition of drug efflux determined in high-throughput screen, JC-1 efflux, DNR-resistant Jurkat cells): 0.74 ± 0.13 µM
TD50 (SD), 50% toxic dose determined in in vitro screen [4]: 30.4 µM
TD50 (SD), 50% toxic dose determined in in vitro screen ([4]; listed as mometasone): 24.8 ± 8.0 µM
EC50 ([2]; DNR-resistant Jurkat cells, fixed 100 nM DNR, 7 days, trypan blue viability): 1.4 ± 0.28 µM

Cc1c2ccncc2c(C)c2c1[nH]c1ccccc12 [Ellipticine, ellipticine]
IC50 (ABCB1 [1]): 0.99 ± 0.014 µM
TD50 (SD), 50% toxic dose determined in in vitro screen [4]: 3.8 µM
TD50 (SD), 50% toxic dose determined in in vitro screen ([4]; listed as ellipticine): 2.7 ± 1.56 µM
EC50 ([2]; Homo sapiens, Jurkat, 168 h): 1.8 µM

CC[C@H](c1ccc(O)cc1)[C@@H](CC)c1ccc(O)cc1 [Hexestrol, hexestrol]
IC50 (ABCB1 [1]): 8.3 ± 3.2 µM
EC50 ([2]; Homo sapiens, Jurkat, 168 h): 12.8 µM

CC(C)COCC(CN(Cc1ccccc1)c1ccccc1)N1CCCC1 (stereo not shown) [Bepridil HCL, bepridil]
IC50 (ABCB1 [1]): 7.4 ± 0.95 µM
EC50 [2, 7]: 3.3 µM

CC[C@]1(O)C[C@H]2CN(CCc3c([nH]c4ccccc34)[C@@](C(=O)OC)(c3cc4c(cc3OC)N(C=O)[C@H]3[C@@](O)(C(=O)OC)[C@H](OC(C)=O)[C@]5(CC)C=CCN6CC[C@]43[C@@H]65)C2)C1 [VCR, Vincristine]
increased resistance of DNR-resistant vs parental Jurkat cells [3]: approximately 70 fold
IC50 [3]: 316 µM
IC50 (parental Jurkat cells): 6.31 µM

Fc1ccc(C(OCCN2CCN(CCCc3ccccc3)CC2)c2ccc(F)cc2)cc1 [GBR 12909 HCL, GBR 12909]
IC50 (ABCB1 [1]): 4.6 ± 0.28 µM
EC50 [2, 7]: 2.1 µM

CC(=O)O[C@H]1C[C@@]2(C)[C@@H](C[C@@H](O)[C@H]3[C@@]4(C)CC[C@@H](O)[C@@H](C)[C@@H]4CC[C@@]32C)/C1=C(\CCC=C(C)C)C(=O)O [fusidic acid]
hit in primary screen of Prestwick Chemical Library for ABCB1-mediated JC-1 efflux (ABCB1 [5]): inhibiting ABCB1-mediated drug efflux

C=C(C)[C@H]1Cc2c(ccc3c2O[C@@H]2COc4cc(OC)c(OC)cc4[C@@H]2C3=O)O1 [rotenone]
hit in primary screen of Prestwick Chemical Library for ABCB1-mediated JC-1 efflux (ABCB1 [1]): inhibiting ABCB1-mediated drug efflux

COC(=O)C1=C(C)NC(C)=C(C(=O)OCCN(C)Cc2ccccc2)C1c1cccc([N+](=O)[O-])c1 (stereo not shown) [Nicardipine HCL, nicardipine]
EC50 [2, 7]: 2.6 µM

L-asparaginase
increased resistance of DNR-resistant vs parental Jurkat cells [3]: no increased resistance

CC[C@@H](C(=O)[C@@H](C)[C@@H](O)[C@H](C)CCc1ccc(C)c(O)c1C(=O)O)[C@H]1O[C@](CC)([C@H]2CC[C@](O)(CC)[C@H](C)O2)C[C@@H]1C [Lasalocid]
JC1 duplex assay response, ABCB1 (ABCB1 [6]): significant assay response for both transporters
JC1 duplex assay response, ABCG2 (ABCG2): significant assay response for both transporters

COc1c(O[C@@H]2O[C@H](CO)[C@@H](O)[C@H](O)[C@H]2O)cc2c(c1OC)-c1ccc(SC)c(=O)cc1[C@@H](NC(C)=O)CC2 [thiocolchicoside]
hit in primary screen of Prestwick Chemical Library for ABCB1-mediated JC-1 efflux (ABCB1 [1]): inhibiting ABCB1-mediated drug efflux

antimycin
hit in primary screen of Prestwick Chemical Library for ABCB1-mediated JC-1 efflux (ABCB1 [1]): inhibiting ABCB1-mediated drug efflux

CCOC(=O)Oc1c(OC)cc(C(=O)O[C@@H]2C[C@@H]3CN4CCc5c([nH]c6cc(OC)ccc56)[C@H]4C[C@@H]3[C@H](C(=O)OC)[C@H]2OC)cc1OC [syrosingopine]
hit in primary screen of Prestwick Chemical Library for ABCB1-mediated JC-1 efflux (ABCB1 [5]): inhibiting ABCB1-mediated drug efflux

COC(=O)[C@H]1[C@H]2C[C@@H]3c4[nH]c5cc(OC)ccc5c4CCN3C[C@H]2C[C@@H](OC(=O)/C=C/c2cc(OC)c(OC)c(OC)c2)[C@@H]1OC [Rescinnamine, rescinnamine]
IC50 (ABCB1 [1]): 1.53 ± 0.5 µM
EC50 [2, 7]: 1 µM
